The text below walks through data of article PMC6269562, “Design, Synthesis and Biological Evaluation of New Imidazo[2,1-b]Thiazole Derivatives as Selective COX-2 Inhibitors” (Iranian Journal of Pharmaceutical Research : IJPR, 2018).

In one data set the target is T1, ovine COX-1 (Ovis aries, UniProt P05979).
T1 construct: purchased Cayman chemical, MI, USA
T1 sequence (P05979 25-600): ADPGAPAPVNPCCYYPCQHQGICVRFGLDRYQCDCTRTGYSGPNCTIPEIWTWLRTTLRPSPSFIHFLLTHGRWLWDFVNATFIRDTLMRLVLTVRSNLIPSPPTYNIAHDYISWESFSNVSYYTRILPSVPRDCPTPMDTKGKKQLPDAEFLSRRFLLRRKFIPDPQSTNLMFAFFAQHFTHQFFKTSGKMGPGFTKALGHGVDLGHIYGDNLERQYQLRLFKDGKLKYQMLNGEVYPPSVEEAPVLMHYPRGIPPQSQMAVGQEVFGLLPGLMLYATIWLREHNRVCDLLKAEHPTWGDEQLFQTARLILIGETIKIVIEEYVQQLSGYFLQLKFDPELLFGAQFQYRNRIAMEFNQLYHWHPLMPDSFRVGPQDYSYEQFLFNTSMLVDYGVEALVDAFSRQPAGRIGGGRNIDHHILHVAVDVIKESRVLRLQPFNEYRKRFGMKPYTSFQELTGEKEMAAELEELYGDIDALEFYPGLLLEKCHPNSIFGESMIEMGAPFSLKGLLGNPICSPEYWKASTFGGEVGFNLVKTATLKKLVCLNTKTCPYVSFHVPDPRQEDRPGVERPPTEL
Briefly: biochemical. The settings on record: ovine COX-1/COX-2 assay kit, means of two determinations. The source says: (§1) In-vitro cyclooxygenase (COX) inhibition assay
(§2) Enzyme chemiluminescent kit (Cayman chemical, MI, USA) was used to evaluate inhibition activities of synthesized compounds based on our previous reported procedure ([34]). The Cayman chemical chemiluminescent COX (ovine) inhibitor screening assay employs the heme-catalyzed hydroperoxidase activity of ovine cyclooxygenases to produce luminescence in the presence of a cyclic naphthalene hydrazide and the substrate arachidonic acid.

The next data set concerns the target T2, ovine COX-2 (Ovis aries, UniProt P79208).
T2 construct: purchased Cayman chemical, MI, USA
T2 sequence (P79208 17-603): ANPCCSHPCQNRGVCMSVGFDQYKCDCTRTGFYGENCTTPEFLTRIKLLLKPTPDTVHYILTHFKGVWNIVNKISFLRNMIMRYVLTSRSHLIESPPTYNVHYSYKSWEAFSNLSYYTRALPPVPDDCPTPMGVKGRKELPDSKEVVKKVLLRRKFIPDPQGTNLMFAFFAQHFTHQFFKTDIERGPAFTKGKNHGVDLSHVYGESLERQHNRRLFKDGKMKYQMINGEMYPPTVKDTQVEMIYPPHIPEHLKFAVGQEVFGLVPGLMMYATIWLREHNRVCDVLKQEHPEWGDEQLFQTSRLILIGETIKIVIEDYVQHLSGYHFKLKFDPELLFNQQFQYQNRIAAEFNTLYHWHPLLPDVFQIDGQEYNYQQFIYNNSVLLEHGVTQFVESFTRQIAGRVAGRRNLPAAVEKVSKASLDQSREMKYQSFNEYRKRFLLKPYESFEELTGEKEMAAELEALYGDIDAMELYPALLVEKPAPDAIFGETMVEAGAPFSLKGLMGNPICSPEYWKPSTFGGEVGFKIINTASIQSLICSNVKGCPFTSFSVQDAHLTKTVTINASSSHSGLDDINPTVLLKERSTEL
Briefly: biochemical. The settings on record: for Selectivity index (SI): COX-1 IC50/COX-2 IC50; for IC50: ovine COX-1/COX-2 assay kit, means of two determinations.
Excerpt: as §1, §2

The subject of data set [1] is COX-2. Conditions: cited from earlier work.
The test system of data set [2] is COX-2. Conditions: read-out: COX-2 IC50; cited from earlier work.
The test system of another data set is COX-1. The settings on record: read-out: IC50 Whole cell COX-1; cited from earlier work.

Each structure is given as a SMILES string. Where two headings read alike, the source gives them in different places. Where only a bound is given, the exact number is not on record here.

The term IC50 denotes the concentration that gives 50% inhibition. For orientation: melting point means the temperature of the solid-liquid transition. With `CS(=O)(=O)c1ccc(-c2nc3sccn3c2CN2CCCCC2)cc1` [Compound 6e, 6-(4-(Methylsulfonyl)phenyl)-5-(piperidin-1-ylmethyl)imidazo[2,1-b]thiazole], the melting point was in the range of 142.6 to 144 °C. Further, the IC50 on ovine COX-1 turned out to be 50100 nM. Further, on ovine COX-2, the “Selectivity index (SI)” value came out at 313.1 and it took 160 nM to reach half-maximal inhibition (IC50).

On to `CS(=O)(=O)c1ccc(-c2nc3ccccn3c2CN2CCOCC2)cc1` [2-(4-(methylsulfonyl)phenyl)-3-(morpholinomethyl)H-imidazo[1,2-a]pyridine], for which the SI in the data set with COX-2 [1] (COX-2 selectivity index) is recorded as 217.1. In the data set on COX-2 [1] (read-out: IC50 (COX-2 inhibition)), the IC50 was 70 nM.

Compound `CN(C)Cc1c(-c2ccc(S(C)(=O)=O)cc2)nc2sccn12` [Compound 6a, N,N-Dimethyl-1-(6-(4-(methylsulfonyl)phenyl)imidazo[2,1-b]thiazol-5-yl)methanamine] had a melting point of 123 to 124 °C. Moreover, the IC50 at ovine COX-1 was more than 100000 nM. In addition, 80 nM corresponded to half-maximal inhibition against ovine COX-2 (IC50).

On to `CCN(CC)Cc1c(-c2ccc(S(C)(=O)=O)cc2)nc2sccn12` [Compound 6b, N-Ethyl-N-((6-(4-(methylsulfonyl)phenyl)imidazo[2,1-b]thiazol-5-yl)methyl)ethanamine], for which the melting point fell in the range of 132 to 135 °C. At ovine COX-1, this compound gave an IC50 of 48500 nM. At ovine COX-2, the “Selectivity index (SI)” value is listed as 404.1 and the IC50 stood at 120 nM.

On to `COc1ccc2[nH]c(-c3ccc(S(C)(=O)=O)cc3)cc2c1` [5-methoxy-2-(4-(methylsulfonyl)phenyl)-1H-indole], for which the IC50 in the data set on COX-2 [2] was 80 nM.

Compound `CS(=O)(=O)c1ccc(-c2nc3sccn3c2CN(CCO)CCO)cc1` [Compound 6g, 2,2′-(((6-(4-(Methylsulfonyl)phenyl)imidazo[2,1-b]thiazol-5-yl)methyl)azanediyl)bis(ethan-1-ol)] returned a melting point of 168.8 to 170 °C. Besides, on ovine COX-1, the IC50 is more than 100000 nM. This compound had an IC50 at ovine COX-2 of 110 nM.

`CCCN(CCC)Cc1c(-c2ccc(S(C)(=O)=O)cc2)nc2sccn12` [Compound 6c, N-((6-(4-(Methylsulfonyl)phenyl)imidazo[2,1-b]thiazol-5-yl)methyl)-N-propylpropan-1-amine] displayed a melting point of 165 to 167 °C.

`CS(=O)(=O)c1ccc(-c2nc3sccn3c2CN2CCCC2)cc1` [Compound 6d, 6-(4-(Methylsulfonyl)phenyl)-5-(pyrrolidin-1-ylmethyl)imidazo[2,1-b]thiazole] displayed a melting point of 144 to 146 °C. This compound displayed an IC50 against ovine COX-1 of 12100 nM. Moreover, at ovine COX-2, the “Selectivity index (SI)” value was 134.4 and it took 90 nM to reach half-maximal inhibition (IC50).

`CS(=O)(=O)c1ccc(-c2nc3sccn3c2CN2CCOCC2)cc1` [Compound 6f, 4-((6-(4-(Methylsulfonyl)phenyl)imidazo[2,1-b]thiazol-5-yl)methyl)morpholine] returned a melting point of 203 to 206 °C. It took 55100 nM to reach half-maximal inhibition at ovine COX-1 (IC50). At ovine COX-2, the “Selectivity index (SI)” value was 551.0 and the IC50 was 100 nM.

On to `Cc1cnc2c(-c3ccc(F)cc3)c(-c3ccc(S(C)(=O)=O)cc3)nn2c1C` [3-(4-fluorophenyl)-6,7-dimethyl-2-(4-(methylsulfonyl)phenyl)pyrazolo[1,5-a]pyrimidine], for which, in the data set with COX-1, the 50% inhibitory concentration (IC50) was more than 10000 nM.
